# How the values were obtained:
# [1] = Brix refractometer measurement of 5% GelMA bioink with contrast agents; assay type: physicochemical; settings: 5% GelMA bioink, 0, 20, 30, 40, 50% w/v contrast agent
# Protocol: FIGS. 14A and 14B plot the results of measurement using a Brix refractometer of 5% GelMA bioink with various concentrations (0, 20, 30, 40, 50% w/v) of the contrast agents ioversol and iohexol, respectively. For comparison, a 100% (w/v) sample of each contrast agent was also measured. Since this method measures the number of dissolved solids in a liquid based on its specific gravity, the units are in Brix %. FIGS. 14C and 14D show the Brix % data converted to refractive index.
# [2] = system: human umbilical vein endothelial cells (HUVEC); experiment: CCK8 metabolic activity of printed thin slabs, HUVEC in GelMA; assay type: cell-based; settings: 35% vs 0% IDX; 5% GelMA, 2 million/mL HUVEC; 7 days culture; n=6, p>0.1
# From the text: (§1) In order to verify IDX's biocompatibility with various biomaterials and cell types, we performed thin slab bioprinting using three commonly used formulas: human umbilical vein endothelial cells (HUVEC) in GelMA, human Schwann cells (HSC) in glycidyl methacrylate hyaluronic acid (GMHA), and C2C12 in alginate methacrylate (AlgMA). FIGS. 7A and 7B are plots of the refractive indices of these common bioinks at various biopolymer and IDX concentrations, respectively. Since the ideal IDX concentration range varies between 20% and 35%, we chose to compare 3D printed tissues in which 0% or 35% IDX was used. As will be apparent to those of skill in the art, other bioinks may be used including, but not limited to, multi-arm PEG (polyethylene glycol), Gel-NB (Gelatin-norbornene), Gel-SH (Gelatin-thiol), and combinations thereof, including HA-NB, HA-SH, etc. Furthermore, the sample cell types described herein are not intended to be limiting but were selected to evaluate the process's impact on viability of mammalian cells. Applications of the inventive approach go well beyond mammalian tissue/organ fabrication. […]
# (§2) Cell viability in the printed thin slabs was quantified with Cell Counting Kit-8 (CCK-8, K1018, ApexBio). […] After incubation, 200 μL supernatant was collected from each sample and their OD at 450nm was measured with Tecan Infinite 200 pro.
# [3] = system: human Schwann cells (HSC); experiment: CCK8 metabolic activity of printed thin slabs, HSC in GMHA; assay type: cell-based; settings: 35% vs 0% IDX; 2.5% GMHA, 0.5% GelMA, 10 million/mL HSC; 7 days culture; n=6, p>0.1
# From the text: as §1, §2
# C2C12 = experiment: CCK8 metabolic activity of printed thin slabs, C2C12 in AlgMA; assay type: cell-based; settings: 35% vs 0% IDX; 1% AlgMA, 0.25% GelMA, 10 million/mL C2C12; 7 days culture; n=6, p>0.1
# From the text: as §1, §2
# HUVEC [4] = experiment: Live/Dead staining of printed HUVEC thin slabs; assay type: cell-based; settings: HUVEC in GelMA thin slabs
# From the text: (§3) The bioink used in HUVEC viability experiment (FIGS. 3A, 3D) consists of 5% GelMA, 0.6% LAP, 2 million/mL HUVEC cells, 0% or 35% IDX, and PBS as solvent. The bioink used in HSC viability experiment (FIG. 3B) consists of 2.5% GMHA, 0.5% GelMA, 0.6% LAP, 10 million/mL HSC cells, 0% or 35% IDX, and PBS as solvent. The bioink used in C2C12 viability experiment (FIG. 3C) consists of 1% AlgMA, 0.25% GelMA, 0.6% LAP, 10 million/mL C2C12 cells, 0% or 35% IDX, and PBS as solvent. The bioink used in HUVEC RNAseq experiment (FIG. 3G) consists of 5% GelMA, 0.6% LAP, 10 million/mL HUVEC cells, 0% or 35% IDX, and PBS as solvent.
# (§4) In addition, live/dead staining was also used to characterize cell viability. HUVEC in GelMA bioink is printed as thin slabs with either 0% or 35% IDX. […] Furthermore, the cytoskeleton of HUVECs was stained using phalloidin to visualize the cells' morphology.
# The cell viability was also evaluated with Live/Dead staining. At designated time points, the slabs were washed with DPBS twice, incubated with 2 μM Calcein AM (C3099, Invitrogen) and 3 μM propidium iodide (P3566, Invitrogen) in the fresh culture media at their regular incubation condition for 30 min. After incubation, the slabs were washed with DPBS twice and imaged with Leica DMI6000B fluorescence microscope. The live cell percentage was counted using particle analysis tool in ImageJ.
# HUVEC [5] = experiment: Phalloidin cytoskeleton staining of printed HUVEC slabs; assay type: cell-based, human; settings: 0% vs 35% IDX, day 7
# From the text: as §4
# HUVEC [6] = experiment: RNA-seq of HUVECs in 3D-printed GelMA hydrogel (DESeq2, GSEA); assay type: cell-based, human
# From the text: as §3
# This is especially important for vasculature-on-a-chip studies, where the metabolism and immune-regulation of the endothelium is of interest. […] Here, RNA-sequencing (RNA-seq) was performed to comprehensively investigate the potential changes caused by IDX exposure in the HUVECs in 3D-printed GelMA hydrogel.
# Differential expression was first investigated with DESEQ2. […] To further evaluate the biological impact that IDX brought to the bioprinted vasculature, Gene Set Enrichment Analysis (GSEA) using the Molecular Signature Database (MSigDB) was used. […] The heme metabolism is believed to be a result of the oxidative stress induced by the IDX, and the enrichment in the complement system is potentially related to inflammatory responses. These findings correlate well with the clinically observed adverse effects and previous toxicological studies of IDX.
# HUVECs were 3D printed in 250 μm slabs using GelMA bioink with 0% or 35% IDX. After 7 days of culture, the RNAs from the 3D printed slabs are extracted with TRIzol reagent (15596018, Ambion) followed by purification using spin column method with Direct-zol RNA Microprep (R2060, Zymo Research). The RNA quality evaluation and sequencing was performed by Novogen Inc. The sequencing data was analyzed with FastQC, trimmed with Trimmomatic, aligned with HISAT2, annotated with StringTie. Differential gene expression was analyzed with DESeq2. Gene set enrichment analysis was performed with GSEA_4.2.3 (Broad Institute). Network analysis was performed with Cytoscape 3.9.1 using the EnrichmentMap application.
# [7] = Refractive index measurement at 405 nm; assay type: physicochemical
# Protocol: Tests verified that IDX can effectively tune the refractive index by measuring the refractive index of bioinks comprising 5% GelMA and various concentrations of IDX at the working wavelength of the bioprinter (405 nm). For refractive index measurement, mixtures of 5% GelMA with 0%, 20%, 25%, 30%, or 35% IDX, and PBS as solvent were prepared. […] The refractive indices of bioinks comprising 5% GelMA and 0% IDX, as well as the as-purchased IDX solution (OptiPrep™, Sigma-Aldrich) which contains 60% IDX, are also plotted for reference.
# The refractive index of bioink can be measured using a simple refractometer with a 405 nm laser. […] The converging beam enters the prism-sample interface at different angles, and total internal reflection (TIR) happens at some of these angles. The diverging beam exits the prism, is collimated by a lens, and collected by a camera. […] In order to accurately relate the TIR boundary position on the captured image to the actual reflecting angle, water and isopropanol, whose refractive index and thus TIR critical angles are known, were used to calibrate this relation.
# [8] = Scattering properties of cell-laden bioink (Monte-Carlo with particle swarm optimization); assay type: physicochemical
# Protocol: The scattering effect of the material is usually characterized by scattering coefficient, anisotropy, and reduced scattering coefficient. To further verify that a proper concentration of IDX can effectively reduce the bioinks' scattering effect, bioinks comprising 5% GelMA, 40 million/mL 293T cells, and various IDX concentrations (0%, 20%, 25%, 30%, or 35%) were prepared. An approach that combined Monte-Carlo simulation and particle swarm optimization algorithm was used to determine the bioink's scattering properties at the working wavelength of the bioprinter (405 nm). […] The bioink without refractive index tuning has a scattering coefficient of 11.76 mm^−1, and a reduced scattering coefficient of 0.164 mm^−1. […] By carefully tuning the concentration of contrast agent, scattering can potentially be further reduced.
# We used a well-developed 3D Monte-Carlo method combined with a particle swarm optimization algorithm (57) to numerically calculate the scattering properties of the cell-laden bioinks. The total transmittance and total reflectance at 405 nm of the 1 mm thick bioink containing 40 million/mL cells were measured using a UV-Vis-NIR spectroscope (Perkin Elmer, Lambda 1050) with integrating sphere. The angular intensity distribution of the scattered light at 405 nm was measured with a simple optical goniometer type setup. Given arbitrary optical properties, the total transmittance, total reflectance, and angular distribution can be calculated by the Monte-Carlo method. We then used a particle swarm optimization algorithm on MATLAB (MathWorks, Natick MA) to acquire the optical properties which best fit the measured total transmittance, total reflectance, and angular distribution. FIG. 2E provides sample line graphs showing that the simulated angular distribution of the scattered light well fits the measurement values. Next, we used the acquired scattering coefficient and anisotropy to simulate the spatial distribution of light inside the bioink with Monte-Carlo method. This spatial distribution is also the point spread function of scattering.
# [9] = 35% vs 0% IDX, 7 days after bioprinting, |log2FoldChange|>0.5849, p<0.05
# [10] = bioink 5% GelMA, 40 million/mL 293T cells, 30% IDX, 405 nm
SMILES,tuning of bioink refractive index [1],effect on cells' metabolic activity (CCK8) compared to controls [2],effect on cells' metabolic activity (CCK8) compared to controls [3],effect on cells' metabolic activity (CCK8) compared to controls (C2C12),"cell viability (live cell percentage) (HUVEC [4]; 0% or 35% IDX, Day 1, Day 3, Day 7)","difference in cell viability between 0% and 35% IDX (HUVEC [4]; n=4, p>0.1 for all pairs)",cell morphology / endothelialization (HUVEC [5]),genes downregulated (HUVEC [6]; [9]),genes significantly upregulated (HUVEC [6]; [9]),"principal component analysis clustering of samples (HUVEC [6]; 35% vs 0% IDX, n=3)",curated collection gene sets downregulated (HUVEC [6]; response to IDX exposure),curated collection gene sets upregulated (HUVEC [6]; response to IDX exposure),ontology collection gene sets downregulated (HUVEC [6]; response to IDX exposure),ontology collection gene sets upregulated (HUVEC [6]; response to IDX exposure),"hallmark gene sets significantly enriched (GSEA) (HUVEC [6]; samples printed with IDX bioink, FDR<25%, p<0.05)","refractive index of the bioink versus IDX concentration ([7]; 5% GelMA, IDX 20% to 35%, 405 nm)",refractive index ([7]; IDX solution),reduction of scattering ([8]; 30% IDX vs bioink without refractive index tuning),"reduced scattering coefficient [8, 10]","scattering coefficient [8, 10]"
O=C(NCC(O)CO)c1c(I)c(C(=O)NCC(O)CO)c(I)c(N(CCO)C(=O)CO)c1I (centres unmarked) [ioversol],can effectively tune its refractive index,,,,,,,,,,,,,,,,,,,
"CC(=O)N(CC(O)CN(C(C)=O)c1c(I)c(C(=O)NCC(O)CO)c(I)c(C(=O)NCC(O)CO)c1I)c1c(I)c(C(=O)NCC(O)CO)c(I)c(C(=O)NCC(O)CO)c1I (centres unmarked) [IDX, iodixanol]",,no statistically significant effect,no statistically significant effect,no statistically significant effect,greater than 90%,No statistically significant difference,no qualitative differences observed,569 genes,587 genes,did not cluster into two groups,11 gene sets,3 gene sets,1 gene set,18 gene sets,"xenobiotic metabolism, heme metabolism, and complement gene sets",linearly increases,greater than 1.4,approximately 10 fold,0.014 mm^−1,1.377 mm^−1

# — patent publication US20260199555A1, “3D PRINTING OF HIGH CELL DENSITY VASCULARIZED TISSUE” (priority 2022, published 2026)
